Counter-ions that a name gives are not always drawn.
Tests used:
Details in all cases: 72 h
HL-60 [1] = tested on: HL-60
Method in brief: (§1)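 The IC50 was derived from log-logistic dose–response fitting. Each of fifteen myeloid leukaemia cell lines, seeded in RPMI 1640 within its linear growth range, was exposed in 384-well plates to five tenfold doses (1 to 10,000 nM) in duplicate for 72 h at 37 °C and 5% CO2. Luminescent ATP viability readings were normalised to vehicle and to a positive control at 10 µM before four-parameter curve fitting.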

MV4-11 [2] = tested on: MV4-11
Method in brief: as §1

KCL-22 [3] = tested on: KCL-22
Method in brief: as §1

K-562 [4] = tested on: K-562
Method in brief: as §1

ML-2 [5] = tested on: ML-2
Method in brief: as §1

KG-1 [6] = tested on: KG-1
Method in brief: as §1

LAMA-84 [7] = tested on: LAMA-84
Method in brief: as §1

THP-1 [8] = tested on: THP-1
Method in brief: as §1

NOMO-1 [9] = tested on: NOMO-1
Method in brief: as §1

SHI-1 [10] = tested on: SHI-1
Method in brief: as §1

MOLM-13 [11] = tested on: MOLM-13
Method in brief: as §1

HEL [12] = tested on: HEL
Method in brief: as §1

Mono-Mac-6 [13] = tested on: Mono-Mac-6
Method in brief: as §1

KU-812 [14] = tested on: KU-812
Method in brief: as §1

BV-173 [15] = tested on: BV-173
Method in brief: as §1

HL-60 [16] = experiment: cell viability (% survival relative to DMSO control, bortezomib = 0%); higher = less cytotoxic
Method in brief: (§2)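 Seeding density for each of the 10 AML and 5 CML cell lines was titrated to the linear growth range. Cells went into 384-well plates pre-printed in duplicate with compounds at 1, 10, 100, 1000 or 10000 nM and were held for 72 h at 37 °C with 5% CO2. CellTiter-Glo luminescence then provided the readout. Percent survival is expressed relative to vehicle at 100% and a 10 µM positive control at 0%, averaged over duplicates.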

MV4-11 [17] = experiment: as above
Method in brief: as §2

KCL-22 [18] = experiment: as above
Method in brief: as §2

K-562 [19] = experiment: as above
Method in brief: as §2

ML-2 [20] = experiment: as above
Method in brief: as §2

KG-1 [21] = experiment: as above
Method in brief: as §2

LAMA-84 [22] = experiment: as above
Method in brief: as §2

THP-1 [23] = experiment: as above
Method in brief: as §2

NOMO-1 [24] = experiment: as above
Method in brief: as §2

SHI-1 [25] = experiment: as above
Method in brief: as §2

MOLM-13 [26] = experiment: as above
Method in brief: as §2

HEL [27] = experiment: as above
Method in brief: as §2

Mono-Mac-6 [28] = experiment: as above
Method in brief: as §2

KU-812 [29] = experiment: as above
Method in brief: as §2

BV-173 [30] = experiment: as above
Method in brief: as §2

CC(C)(Cc1ccccc1)NCC(O)c1ccc(O)c(NS(C)(=O)=O)c1 (stereo not given) [Zinterol hydrochloride]
Details | IC50 (cell viability) [µM]
BV-173 [15] | > 10
HEL [12] | > 10
HL-60 [1] | > 10
K-562 [4] | > 10
KCL-22 [3] | > 10
KG-1 [6] | > 10
KU-812 [14] | > 10
LAMA-84 [7] | > 10
ML-2 [5] | > 10
MOLM-13 [11] | > 10
MV4-11 [2] | > 10
Mono-Mac-6 [13] | 0.0976
NOMO-1 [9] | > 10
SHI-1 [10] | > 10
THP-1 [8] | > 10

cell viability [%]
Details | 1 nM | 10 nM | 100 nM | 1000 nM | 10000 nM
BV-173 [30] | 113 | 93.6 | 106 | 87 | 121
HEL [27] | 77.8 | 101 | 103 | 110 | 93.5
HL-60 [16] | 107 | 113 | 85 | 87.7 | 112
K-562 [19] | 92.5 | 107 | 99.9 | 107 | 111
KCL-22 [18] | 96.1 | 99.4 | 98.2 | 103 | 95.6
KG-1 [21] | 118 | 94.5 | 99.6 | 87.9 | 102
KU-812 [29] | 113 | 93.9 | 106 | 87.1 | 97.6
LAMA-84 [22] | 106 | 99.1 | 112 | 96.6 | 101
ML-2 [20] | 95.4 | 93.3 | 93 | 93.9 | 103
MOLM-13 [26] | 90.9 | 86.8 | 82.3 | 90.7 | 98
MV4-11 [17] | 89.7 | 79.9 | 84.5 | 74.3 | 88.4
Mono-Mac-6 [28] | 72.2 | 51.5 | 49 | 48.6 | 50.1
NOMO-1 [24] | 107 | 107 | 101 | 98.6 | 97.4
SHI-1 [25] | 111 | 112 | 103 | 110 | 120
THP-1 [23] | 109 | 101 | 111 | 103 | 102

CC(=O)N1CCN(c2ccc(OC[C@@H]3CO[C@@](Cn4ccnc4)(c4ccc(Cl)cc4Cl)O3)cc2)CC1 (racemic) [Ketoconazole]
Details | IC50 (cell viability) [µM]
BV-173 [15] | > 10
HEL [12] | > 10
HL-60 [1] | > 10
K-562 [4] | > 10
KCL-22 [3] | 8.91
KG-1 [6] | 8.35
KU-812 [14] | > 10
LAMA-84 [7] | > 10
ML-2 [5] | > 10
MOLM-13 [11] | > 10
MV4-11 [2] | > 10
Mono-Mac-6 [13] | > 10
NOMO-1 [9] | > 10
SHI-1 [10] | > 10
THP-1 [8] | > 10

cell viability [%]
Details | 1 nM | 10 nM | 100 nM | 1000 nM | 10000 nM
BV-173 [30] | 90.8 | 78.3 | 100 | 92.6 | 78.8
HEL [27] | 104 | 105 | 94.1 | 112 | 67.2
HL-60 [16] | 104 | 109 | 97.8 | 112 | 75.5
K-562 [19] | 98.6 | 95.2 | 97.3 | 91.8 | 95.8
KCL-22 [18] | 98.4 | 117 | 101 | 103 | 44.1
KG-1 [21] | 97.5 | 105 | 90.9 | 93.7 | 42.9
KU-812 [29] | 100 | 102 | 95.1 | 105 | 70.5
LAMA-84 [22] | 104 | 97.9 | 96.3 | 96.7 | 82.6
ML-2 [20] | 97.8 | 113 | 90.8 | 101 | 69.9
MOLM-13 [26] | 92.5 | 110 | 100 | 104 | 88.1
MV4-11 [17] | 92.5 | 94.3 | 102 | 98.2 | 54.7
Mono-Mac-6 [28] | 93.6 | 91.8 | 95.6 | 94 | 90.1
NOMO-1 [24] | 102 | 95.5 | 100 | 99.8 | 99.5
SHI-1 [25] | 104 | 113 | 96.3 | 114 | 97.5
THP-1 [23] | 105 | 95.9 | 97.4 | 104 | 91.1

COc1cc(C2Oc3cc(C4Oc5cc(O)cc(O)c5C(=O)C4O)ccc3OC2CO)ccc1O (stereo not given) [Silibinin]
Details | IC50 (cell viability) [µM]
BV-173 [15] | > 10
HEL [12] | > 10
HL-60 [1] | > 10
K-562 [4] | > 10
KCL-22 [3] | > 10
KG-1 [6] | > 10
KU-812 [14] | > 10
LAMA-84 [7] | > 10
ML-2 [5] | > 10
MOLM-13 [11] | > 10
MV4-11 [2] | > 10
Mono-Mac-6 [13] | > 10
NOMO-1 [9] | > 10
SHI-1 [10] | > 10
THP-1 [8] | > 10

cell viability [%]
Details | 1 nM | 10 nM | 100 nM | 1000 nM | 10000 nM
BV-173 [30] | 90.9 | 93.5 | 110 | 95.2 | 87.2
HEL [27] | 101 | 100 | 115 | 89.2 | 103
HL-60 [16] | 91.9 | 92.9 | 96.9 | 105 | 104
K-562 [19] | 95 | 97.7 | 102 | 94.5 | 76.4
KCL-22 [18] | 99.3 | 95.3 | 84.2 | 102 | 95.1
KG-1 [21] | 91.3 | 104 | 99.2 | 94.3 | 93.8
KU-812 [29] | 96.5 | 93.1 | 108 | 94.1 | 90.7
LAMA-84 [22] | 98.1 | 102 | 110 | 95.6 | 95
ML-2 [20] | 93 | 99.2 | 87.2 | 95.8 | 91.1
MOLM-13 [26] | 99.8 | 103 | 103 | 106 | 103
MV4-11 [17] | 100 | 95.7 | 97.2 | 110 | 98.8
Mono-Mac-6 [28] | 96.4 | 91.2 | 94.1 | 99 | 98.9
NOMO-1 [24] | 95.3 | 96.4 | 99.8 | 101 | 99.7
SHI-1 [25] | 102 | 107 | 89.3 | 98.6 | 105
THP-1 [23] | 99.3 | 95.5 | 107 | 98.9 | 95.9
